The target in assay [1] is T1, Calcium/calmodulin-dependent protein kinase type IV (Homo sapiens) (UniProt Q16566).
T1 sequence (whole entry): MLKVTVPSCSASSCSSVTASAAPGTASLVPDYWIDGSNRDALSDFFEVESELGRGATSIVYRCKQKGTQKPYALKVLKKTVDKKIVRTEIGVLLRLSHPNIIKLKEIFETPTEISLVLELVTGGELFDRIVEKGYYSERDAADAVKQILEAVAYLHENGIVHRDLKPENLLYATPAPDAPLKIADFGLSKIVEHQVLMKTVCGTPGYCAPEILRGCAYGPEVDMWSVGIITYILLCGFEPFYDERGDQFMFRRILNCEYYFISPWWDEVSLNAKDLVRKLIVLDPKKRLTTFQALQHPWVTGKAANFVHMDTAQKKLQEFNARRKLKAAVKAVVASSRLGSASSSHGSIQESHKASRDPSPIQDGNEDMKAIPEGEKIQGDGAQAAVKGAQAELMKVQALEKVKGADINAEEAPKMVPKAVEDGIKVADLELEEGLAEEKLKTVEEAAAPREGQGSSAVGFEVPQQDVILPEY
Description: Inhibition of human full length CAMK4 expressed in baculovirus assessed as substrate phosphorylation using fluorescence-labelled peptides as substrate at 2 uM after 90 mins by microfluidic peptide phosphorylation assay.

Assay [2] deals with Serine/threonine-protein kinase pim-1 (Homo sapiens) (UniProt P11309). Description: Inhibition of human full length PIM1 expressed in baculovirus assessed as substrate phosphorylation using fluorescence-labelled peptides as substrate at 2 uM after 90 mins by microfluidic peptide phosphorylation assay.
Sequence of Serine/threonine-protein kinase pim-1 (Homo sapiens) (P11309 whole entry, looked up, the tested form may be a part): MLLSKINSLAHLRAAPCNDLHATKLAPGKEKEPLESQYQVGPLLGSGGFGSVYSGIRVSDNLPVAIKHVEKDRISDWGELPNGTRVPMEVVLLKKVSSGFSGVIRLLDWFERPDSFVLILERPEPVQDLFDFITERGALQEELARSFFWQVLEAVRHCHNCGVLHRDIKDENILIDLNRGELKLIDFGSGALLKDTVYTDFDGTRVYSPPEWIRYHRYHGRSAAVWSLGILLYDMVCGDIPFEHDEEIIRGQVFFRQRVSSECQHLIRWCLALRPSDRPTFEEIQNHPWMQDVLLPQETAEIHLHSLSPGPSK
Assay [3] concerns Fibroblast growth factor receptor 2 (Homo sapiens), P21802 [N549H]. Nature of the assay: Inhibition of human FGFR2 N549H mutant catalytic domain expressed in baculovirus assessed as substrate phosphorylation using fluorescence-labelled peptides as substrate at 95 uM after 90 mins by microfluidic peptide phosphorylation assay.
Sequence of Fibroblast growth factor receptor 2 (Homo sapiens), P21802 [N549H] (P21802 whole entry N549H, the tested form may be a part): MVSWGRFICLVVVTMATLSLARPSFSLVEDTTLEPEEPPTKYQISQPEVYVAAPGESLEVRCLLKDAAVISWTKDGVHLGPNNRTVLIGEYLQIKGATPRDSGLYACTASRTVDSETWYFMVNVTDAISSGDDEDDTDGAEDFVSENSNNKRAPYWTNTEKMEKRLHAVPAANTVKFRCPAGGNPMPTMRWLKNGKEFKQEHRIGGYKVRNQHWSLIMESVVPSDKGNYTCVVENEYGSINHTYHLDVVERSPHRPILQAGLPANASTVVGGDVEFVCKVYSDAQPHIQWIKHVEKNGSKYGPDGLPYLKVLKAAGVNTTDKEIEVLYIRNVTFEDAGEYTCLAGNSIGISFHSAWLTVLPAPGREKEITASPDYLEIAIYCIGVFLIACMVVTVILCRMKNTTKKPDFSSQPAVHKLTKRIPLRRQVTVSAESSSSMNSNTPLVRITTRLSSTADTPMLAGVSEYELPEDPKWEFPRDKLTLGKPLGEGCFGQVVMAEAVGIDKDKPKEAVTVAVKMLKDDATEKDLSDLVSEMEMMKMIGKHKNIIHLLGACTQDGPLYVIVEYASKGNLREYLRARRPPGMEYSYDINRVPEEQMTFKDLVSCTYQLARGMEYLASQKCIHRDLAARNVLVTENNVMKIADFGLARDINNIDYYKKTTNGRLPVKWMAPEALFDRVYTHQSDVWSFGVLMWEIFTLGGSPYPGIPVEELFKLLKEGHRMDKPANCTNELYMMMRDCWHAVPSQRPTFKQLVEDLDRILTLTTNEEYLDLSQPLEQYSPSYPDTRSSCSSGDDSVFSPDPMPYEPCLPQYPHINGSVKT
The target in assay [4] is T2, Serine/threonine-protein kinase D1 (Homo sapiens) (UniProt Q15139).
T2 sequence (whole entry): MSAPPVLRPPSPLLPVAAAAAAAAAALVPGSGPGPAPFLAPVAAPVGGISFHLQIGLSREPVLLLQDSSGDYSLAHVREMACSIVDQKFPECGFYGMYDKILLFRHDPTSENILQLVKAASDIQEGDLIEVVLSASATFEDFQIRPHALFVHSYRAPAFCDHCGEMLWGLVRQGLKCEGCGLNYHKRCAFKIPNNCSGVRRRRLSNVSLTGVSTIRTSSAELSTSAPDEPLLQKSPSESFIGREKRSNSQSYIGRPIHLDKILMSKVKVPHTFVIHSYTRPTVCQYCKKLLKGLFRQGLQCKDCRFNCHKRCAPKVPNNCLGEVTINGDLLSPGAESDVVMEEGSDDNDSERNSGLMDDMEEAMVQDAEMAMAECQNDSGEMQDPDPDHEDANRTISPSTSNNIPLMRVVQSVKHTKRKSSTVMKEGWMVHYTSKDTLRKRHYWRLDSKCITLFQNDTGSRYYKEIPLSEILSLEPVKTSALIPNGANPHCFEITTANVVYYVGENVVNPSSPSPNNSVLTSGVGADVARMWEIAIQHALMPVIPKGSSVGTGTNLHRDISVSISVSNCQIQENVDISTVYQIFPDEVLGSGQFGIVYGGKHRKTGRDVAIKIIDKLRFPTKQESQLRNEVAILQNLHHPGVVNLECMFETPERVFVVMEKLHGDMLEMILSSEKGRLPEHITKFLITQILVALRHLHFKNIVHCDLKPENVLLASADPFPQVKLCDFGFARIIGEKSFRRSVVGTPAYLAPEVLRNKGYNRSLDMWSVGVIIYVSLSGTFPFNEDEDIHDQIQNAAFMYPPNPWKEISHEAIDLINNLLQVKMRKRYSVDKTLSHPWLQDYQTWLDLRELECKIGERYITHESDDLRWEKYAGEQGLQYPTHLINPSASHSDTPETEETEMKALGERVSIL
Nature of the assay: Inhibition of human full length PKD1 expressed in baculovirus assessed as substrate phosphorylation using fluorescence-labelled peptides as substrate at 95 uM after 90 mins by microfluidic peptide phosphorylation assay.

Assay [5] concerns the target Dual specificity tyrosine-phosphorylation-regulated kinase 1A (Rattus norvegicus) (UniProt Q63470). Nature of the assay: Inhibition of rat full length DYRK1a expressed in Escherichia coli cell assessed as substrate phosphorylation using fluorescence-labelled peptides as substrate at 70 uM after 90 mins by microfluidic peptide phosphorylation assay.
Assay [6] deals with T3, Receptor-type tyrosine-protein kinase FLT3 (Homo sapiens), P36888 [D835Y].
T3 sequence (whole entry): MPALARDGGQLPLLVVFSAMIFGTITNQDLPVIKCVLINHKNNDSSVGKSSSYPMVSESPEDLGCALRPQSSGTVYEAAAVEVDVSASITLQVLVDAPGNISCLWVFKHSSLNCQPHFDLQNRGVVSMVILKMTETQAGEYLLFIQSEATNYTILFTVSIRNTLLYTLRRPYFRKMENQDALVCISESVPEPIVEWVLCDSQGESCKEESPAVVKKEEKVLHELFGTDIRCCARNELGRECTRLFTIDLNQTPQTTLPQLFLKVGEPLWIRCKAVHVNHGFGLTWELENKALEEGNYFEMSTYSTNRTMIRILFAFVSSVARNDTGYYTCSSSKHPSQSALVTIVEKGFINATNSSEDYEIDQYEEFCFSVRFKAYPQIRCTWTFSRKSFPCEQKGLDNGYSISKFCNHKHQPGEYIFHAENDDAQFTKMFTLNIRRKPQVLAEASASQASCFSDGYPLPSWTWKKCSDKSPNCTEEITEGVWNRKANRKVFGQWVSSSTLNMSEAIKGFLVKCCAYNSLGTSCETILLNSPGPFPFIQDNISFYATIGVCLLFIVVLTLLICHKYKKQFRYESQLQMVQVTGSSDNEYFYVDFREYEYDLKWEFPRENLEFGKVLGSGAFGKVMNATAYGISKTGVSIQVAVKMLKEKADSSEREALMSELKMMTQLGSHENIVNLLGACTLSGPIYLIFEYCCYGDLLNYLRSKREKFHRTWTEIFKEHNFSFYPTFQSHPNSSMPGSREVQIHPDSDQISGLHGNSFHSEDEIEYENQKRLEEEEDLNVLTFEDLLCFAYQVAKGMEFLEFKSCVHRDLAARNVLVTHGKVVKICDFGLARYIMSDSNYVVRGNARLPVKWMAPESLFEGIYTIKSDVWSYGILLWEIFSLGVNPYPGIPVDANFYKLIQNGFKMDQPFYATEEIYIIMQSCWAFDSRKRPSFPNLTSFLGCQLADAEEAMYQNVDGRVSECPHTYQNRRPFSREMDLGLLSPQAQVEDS
Description: Inhibition of human FLT3 D835Y mutant catalytic domain expressed in baculovirus assessed as substrate phosphorylation using fluorescence-labelled peptides as substrate at 70 uM after 90 mins by microfluidic peptide phosphorylation assay.

Assay [7] concerns Fibroblast growth factor receptor 2 (Homo sapiens), P21802 [N549H]. Description: Inhibition of human FGFR2 N549H mutant catalytic domain expressed in baculovirus assessed as substrate phosphorylation using fluorescence-labelled peptides as substrate at 420 uM after 90 mins by microfluidic peptide phosphorylation assay.

Among the data in ChEMBL document CHEMBL3132769, “Fragment growing to retain or alter the selectivity of anchored kinase hinge-binding fragments” (Medchemcomm, 2014) are inhibition values, retold here.

As a reminder, the inhibition is how much of the control response was suppressed.

Take `NC1CCN(c2ncnc3[nH]ccc23)CC1`: the inhibition in assay [1] is 12%; in assay [2], 2%. Consider `NCCc1ccc(-c2ncnc3[nH]cnc23)cc1`, for which the inhibition in assay [3] turned out to be 40%; in assay [4], 44%.

As to `CNCc1ccc(-c2ncnc3[nH]cnc23)cc1`, the inhibition in assay [5] stood at 61%; in assay [6], 69%. On to `c1nc(N2CCOCC2)c2nc[nH]c2n1`, for which, in assay [7], the inhibition was 89.5%.
